In patent publication US20250099472A1, “RUXOLITINIB FOR THE TREATMENT OF PRURIGO NODULARIS” (INCYTE CORPORATION, priority 2021, published 2025):

Experiments:
[1] = tested on: skin biopsies from active disease, untreated, prurigo nodularis patients; experiment: Ruxolitinib-mediated pharmacological inhibition of PN pathophysiology: proteins secreted by cultured PN skin explants, Procarta Multiplex Immunoassay; format: cell-based, human; settings: for percent inhibition of IFN-gamma / percent inhibition of IL-2 / percent inhibition of IL-8 (CXCL8) / percent inhibition of IL-10 / percent inhibition of IL-17 alpha (CTLA-8) / percent inhibition of IP-10 (CXCL10): culture supernatant vs DMSO
Method: Full-thickness cutaneous skin biopsies were obtained from active disease, untreated, prurigo nodularis patients. Single 4 mm-punch biopsies were obtained from the same lesion for each patient and longitudinally divided into two pieces (see FIG. 1). FIG. 1 depicts a representation of skin punch biopsies used for the JAK1/JAK2 mediated pharmacological inhibition of PN pathophysiology. Biopsies were cultured for 8 days in KBM media+CaCl2 and refreshed every 2-3 days. Ruxolitinib phosphate or DMSO (control) was added to the cell culture media. Conditioned supernatants collected during/prior to media refresh were stored at −80° C. for subsequent analysis. On day 8, cultures were terminated and tissue RNA isolated for subsequent analysis.
Collected supernatants were analyzed to quantify chemokines, cytokines, and growth factors secreted by skin explants in culture and which are involved in inflammation. A total of 51 proteins were detected and quantified in culture supernatants by Procarta Multiplex Immunoassay (Thermo Fisher, Waltham, MA). Supernatants and standards were incubated at 4° C. overnight. Assay plates were read on a Luminex 200 Instrument (Luminex Corporation, Austin, TX). The concentration was extrapolated from the antigen standard curve of each analyte. The percent inhibition determined for each analyte as the difference in protein concentration in cultures with DMSO (CD) versus those with ruxolitinib (CJ), (CD−CJ)/CD (see FIG. 2).

[2] = Solubility of ruxolitinib free base or 1:1 phosphate salt in potential solvents (HPLC); format: physicochemical; settings: room temperature, 24 hours
Method: First, in order to determine the solubility of ruxolitinib (free base) or its 1:1 phosphate salt, approximately 5 mL of a potential solvent was added to approximately 50 mg of the API or its salt at room temperature. The mixtures were suspended and rotated on a wheel. If the mixtures became clear solutions, more solid material was added. The suspensions were then suspended over 24 hours. The samples were filtered through 0.2 micron filters. The liquid portions were collected and diluted with 50/50 water methanol/water. The concentrations of the diluted samples were analyzed by HPLC. When the free base or salt was fairly insoluble, the results are approximate only.

PN patients = settings: inhibition of IL-31; cited from earlier work
PN skin = PN skin cultured with nemolizumab; cited from earlier work

Cc1n[nH]c(C)c1-c1cnn(C2(CC#N)CN(c3cc(F)c(C(=O)N[C@@H](C)C(F)(F)F)cc3F)C2)c1 [4-[3-(cyanomethyl)-3-(3′,5′-dimethyl-1H,1′H-4,4′-bipyrazol-1-yl)azetidin-1-yl]-2,5-difluoro-N-[(1S)-2,2,2-trifluoro-1-methylethyl]benzamide]
percent inhibition of IL-5 ([1]; 48 hours, same assays): 20.25% | percent inhibition of IL-22 ([1]; 48 hours, same assays): 11.16%

N#CC[C@H](C1CCCC1)n1cc(-c2ncnc3[nH]ccc23)cn1 [ruxolitinib]
Solubility ([2]; C12-15 alcohol benzoate, approximate, listed as Free Base): 0.15 mg/mL | Solubility ([2]; Caprylic triglyceride, approximate, listed as Free Base): 0.15 mg/mL | Solubility ([2]; Dimethicone, approximate, listed as Free Base): 0.15 mg/mL | Solubility ([2]; Isopropanol, listed as Free Base): 0.45 mg/mL | Solubility ([2]; Isopropyl myristate, approximate): 0.08 mg/mL | Solubility ([2]; Isosorbide dimethyl ether, listed as Free Base): 0.3 mg/mL | Solubility ([2]; Mineral oil, approximate): 0.08 mg/mL | Solubility ([2]; Olelyl alcohol, approximate, listed as Free Base): 0.08 mg/mL | Solubility ([2]; Propylene glycol, listed as Free Base): 18.2 mg/mL | Solubility ([2]; Water/glycerin/trolamine (40/40/20)): 13.6 mg/mL | percent inhibition of IFN-gamma ([1]; 48 hr): 5.0% | percent inhibition of IL-2 ([1]; 48 hr): 17.8% | percent inhibition of IL-8 (CXCL8) ([1]; 48 hr): 13.7% | percent inhibition of IL-10 ([1]; 48 hr): 36.2% | percent inhibition of IL-17 alpha (CTLA-8) ([1]; 48 hr): 63.9% | percent inhibition of IP-10 (CXCL10) ([1]; 48 hr): 9.7% | percent inhibition of IFN-gamma ([1]; 96 hr): 11.6% | percent inhibition of IL-2 ([1]; 96 hr): 16.6% | percent inhibition of IL-8 (CXCL8) ([1]; 96 hr): ** (no measureable inhibition) | percent inhibition of IL-10 ([1]; 96 hr): 39.9% | percent inhibition of IL-17 alpha (CTLA-8) ([1]; 96 hr): 57.6% | percent inhibition of IP-10 (CXCL10) ([1]; 96 hr): 60.3%

B1: nemolizumab: an IL-31 inhibitor; anti-IL-31 antibody (antibody, chains of the INN, looked up)
heavy: QVQLVQSGAEVKKPGASVKVSCKASGYTFTGYIMNWVRQAPGQGLEWMGLINPYNGGTDYNPQFQDRVTITADKSTSTAYMELSSLRSEDTAVYYCARDGYDDGPYTLETWGQGTLVTVSSASTKGPSVFPLAPSSKSTSGGTAALGCLVKDYFPEPVTVSWNSGALTSGVHTFPAVLQSSGLYSLSSVVTVPSSNFGTQTYTCNVDHKPSNTKVDKTVERKSCVECPPCPAPPVAGPSVFLFPPKPKDTLMISRTPEVTCVVVDVSQEDPEVQFNWYVDGVEVHNAKTKPREEQFNSTFRVVSVLTVVHQDWLNGKEYKCKVSNKGLPAPIEKTISKTKGQPREPQVYTLPPSQEEMTKNQVSLTCLVKGFYPSDIAVEWESNGQPENNYKTTPPMLDSDGSFFLYSKLTVDKSRWQEGNVFSCSVMHEALHNHYTQKSLSLSP
light: DIQMTQSPSSLSASVGDRVTITCQASEDIYSFVAWYQQKPGKAPKLLIYNAQTEAQGVPSRFSGSGSGTDFTLTISSLQPEDFATYYCQHHYDSPLTFGGGTKVEIKRTVAAPSVFIFPPSDEQLKSGTASVVCLLNNFYPREAKVQWKVDNALQSGNSQESVTEQDSKDSTYSLSSTLTLSKADYEKHKVYACEVTHQGLSSPVTKSFNRGEC
pruritus and skin lesions in PN patients (PN patients): improvement in pruritus and skin lesions | IL-17 levels in lesional skin (PN skin): reduction in IL-17 levels
